Tests used:
[1] = hair fly-away: electrostatic charge of brushed hair tresses (Faraday pail, electrometer); conditions: one percent aqueous solutions; hair tresses brushed or combed 20 strokes
Method: To test the hair fly-away characteristics of the novel bisquaternary ammonium compounds of the present invention, the following test procedure can be utilized.
The hair to be utilized is formed into six inch long, 1.5 gram weight tresses, cleaned with methanol first, then with a 1% solution of sodium lauryl sulfate followed by a rinse with distilled water. The tress is then dried in an oven at 55° C. The tresses except for the controls are then treated with the test compounds and redried at 55° C.
An electrometer (Electrometer Model 610C, Keithley Instrument Co., Cleveland, Ohio) to serve as a coulomb meter for direct measurement of charge is attached to a Faraday pail and switched on.
The test tresses are singly taken out of the drying oven, held at the tied end and brushed or combed twenty strokes alternating between front and back side of the tress as held by the operator. A clean brush or comb is utilized and the velocity with which the brush or comb is traversed through the tress is maintained constant as much as possible. Further, since the electrostatic charges are capable of being quickly dissipated into the atmosphere, the procedure consists of uniformly brushing or combing 20 strokes in a period of 10 seconds and immediately following the last stroke, the lid of the Faraday cage is opened and the tress is dropped into the Faraday pail without contacting any other object and the lid is replaced. The charge in coulombs is read from the electrometer and the tress is then removed from the Faraday pail and the instrument is reset for the next tress sample.
Since electrostatic charge buildup creates fly-away in atmospheres of low humidity, these compounds are useful to prevent said fly-away condition.

rabbit eye = experiment: modified Draize Test, ocular irritation; type: in vivo; conditions: 3.50% of compound in shampoo composition; 0.1 ml per eye, albino rabbit; control shampoo rated Severe Irritant
Method: The bisquaternary ammonium compounds of the present invention can be tested for ocular irritation by the following modified Draize Test (J. H. Draize et al., Toilet Goods Assn. No. 17, May 1952, No. 1, Proc. Sci. Sect.).
An 0.1 ml. sample of a neutral composition under test is dropped into one eye of an albino rabbit, the other eye serving as a control. Six rabbits are employed for each composition. Observations are made after 1, 24, 48, 72 and 96 hours and 7 days after initial instillation; second and third instillations are made after the 24 and 48 hour readings. Results may vary from substantially no change or only a slight irritation in the appearance of the rabbit's eye after 7 days to severe irritation and/or complete corneal opacity. Ocular lesions are scored for the cornea, iris and conjunctiva with a higher number indicating greater ocular irritation and the scores are added to give a total numerical value for each reading for six rabbits and averaged. The averaged score is an indication of the irritation potential of the composition under test. Based on the averaged score, descriptive irritation evaluation may be given, e.g., none, slight, moderate, severe, as the case may be.
A shampoo composition is prepared consisting of the following ingredients:
This formulation serves as a control with three additional formulations being made with the only difference being that in each of said formulations 3.50% of distilled water is replaced with 3.50% of compound JJ, KK and LL respectively. These formulations are then tested in accordance with the above procedure and the results are shown below in Table I.

Aspergillus niger = experiment: Minimum Inhibiting Concentration test; type: cell-based; conditions: fungi, 25° C., 1 month
Method: (§1) First, 200 mg. each of the compounds, AA, CC, GG, II and MM are placed in 100 ml. of a 10% ethyl alcohol solution resulting in a concentration of 2.00 mg/ml. and then 11 serial two fold dilutions are made to a final concentration of […]. Thus, a range of concentrations of from 0.0001 mg/ml. to 2.00 mg/ml. are prepared. Separately, 1000 ml. of a standard Antibiotic Medium #3 is innoculated with 1 ml. of a 24 hour broth culture of each of the test organisms and the resulting solutions are dispersed in 2 ml. portions into 13 mm×100 mm test tubes at 4° C. Two test tubes for each of the test organisms are prepared.
(§2) Then, 0.4 ml. of each concentration of the compound to be tested is placed in each of the test tubes, which are then shaken and placed at a temperature of 35° C. for a period of 18 hours for bacteria, 25° C. for a period of 3 days for yeast, and 25° C. for a period of 1 month for fungi. The end point of the activity is determined by streaking utilizing a calibrated loop to Trypticase Soy Agar to determine the last tube (concentration) with growth and the next greatest concentration.

Candida albicans = experiment: Minimum Inhibiting Concentration test; type: cell-based; conditions: yeast, 25° C., 3 days; for MIC: 72 h
Method: as §1, §2

Epidermophyton flocossum = experiment: Minimum Inhibiting Concentration test; type: cell-based; conditions: fungi, 25° C., 1 month
Method: as §1, §2

Escherichia coli = experiment: Minimum Inhibiting Concentration test; type: cell-based; conditions: 35° C., 18 hours
Method: as §1, §2

Proteus mirabilis = experiment: Minimum Inhibiting Concentration test; type: cell-based; conditions: 35° C., 18 hours
Method: as §1, §2

Proteus vulgaris = experiment: Minimum Inhibiting Concentration test; type: cell-based; conditions: 35° C., 18 hours
Method: as §1, §2

Pseudomonas aeruginosa = experiment: Minimum Inhibiting Concentration test; type: cell-based; conditions: 35° C., 18 hours
Method: as §1, §2

Staphylococcus aureos = experiment: Minimum Inhibiting Concentration test; type: cell-based; conditions: 35° C., 18 hours
Method: as §1, §2

Staphylococcus epidermis = experiment: Minimum Inhibiting Concentration test; type: cell-based; conditions: 35° C., 18 hours
Method: as §1, §2

Staphylococcus pyogenes = experiment: Minimum Inhibiting Concentration test; type: cell-based; conditions: 35° C., 18 hours; for MIC: Staphylococcus aureus
Method: as §1, §2

[2] = tested on: Trichophyton mentagrophytes; experiment: Minimum Inhibiting Concentration test; type: cell-based; conditions: fungi, 25° C., 1 month
Method: as §1, §2

Compound | charge reduction compared to the control [1] | ocular irritation rating (rabbit eye) | MIC (Aspergillus niger) [µg/mL] | MIC (Candida albicans) [µg/mL] | MIC (Epidermophyton flocossum) [µg/mL] | MIC (Escherichia coli) [µg/mL] | MIC (Proteus mirabilis) [µg/mL] | MIC (Proteus vulgaris) [µg/mL] | MIC (Pseudomonas aeruginosa) [µg/mL] | MIC (Staphylococcus aureos) [µg/mL] | MIC (Staphylococcus epidermis) [µg/mL] | MIC (Staphylococcus pyogenes) [µg/mL] | MIC [2] [µg/mL] | also measured
N,N'-di(octatridecenamidopropyl)-N,N,N',N'-tetramethyl-1,5(3-oxapentylene)-diammonium dibromide [JJ] | greater than 95% | Slight Irritant | – | – | – | – | – | – | – | – | – | – | – | –
C=CCCCCCCCCC(=O)NCCC[N+](C)(C)CCCC[N+](C)(C)CCCNC(=O)CCCCCCCCC=C [AA, N,N'-undecenylamidopropyl-N,N,N',N'-tetramethyl-1,-4-butylene diammonium bromide] | – | – | 250 | 250 | 125 | 125 | < 2000 | 250 | 1000 | 125 | 62.5 | 500 | 16 | –
CCCCCCCCCCCCCCCCCCCCCC(=O)NCCC[N+](C)(C)CCOCCOCCOCCOCCOCCOCCOCCOCCOCCOCCOCCOCC[N+](C)(C)CCCNC(=O)CCCCCCCCCCCCCCCCCCCCC.[Br-].[Br-] [LL, N,N'-di(docosamidopropyl)-N,N,N',N'-tetramethyl-1,38(3,6,9,12,15,18,21,24,-27,30,33,36-dodeca-oxaoctatricontylene)diammonium dibromide] | greater than 95% | Slight-Moderate Irritant | – | – | – | – | – | – | – | – | – | – | – | –
CCCCCCCCCCCCCCCCCCCCCC(=O)NCCC[N+](C)(C)CCOCC[N+](C)(C)CCCNC(=O)CCCCCCCCCCCCCCCCCCCCC [KK, N,N'-di(docosamidopropyl)-N,N,N',N'-tetramethyl-1,5(3-oxapentylene)diammonium dibromide] | – | Slight-Moderate Irritant | – | – | – | – | – | – | – | – | – | – | – | –
CCCCCCCCCCCCCCCCCC(=O)NCC[N+](CC)(CC)CCOCC[N+](CC)(CC)CCNC(=O)CCCCCCCCCCCCCCCCC [GG, N,N'-di(stearamidoethyl)-N,N,N',N'-tetraethyl-1,5(3-oxapentylene)diammonium dibromide] | – | – | 250 | 31 | 250 | 1000 | < 2000 | < 2000 | < 2000 | 625 | 62.5 | < 2000 | 16 | –
CCCCCCCCCCCC(=O)NCCC[N+](C)(C)CCOCC[N+](C)(C)CCCNC(=O)CCCCCCCCCCC [CC, N,N'-di(lauramidopropyl)-N,-N,N',N'-tetramethyl-1,5(3-oxapentylene) diammonium bromide] | greater than 95% | – | 125 | 63 | 62.5 | 125 | < 2000 | < 2000 | 250 | 250 | 125 | 250 | 16 | –
N,N'-di(octadidecenamidopropyl)-N,N,N',N'-tetramethyl-1,20 (2,5,8,11,14,17,20-heptamethyl-3,6-9,12,15,18-hexaoxaeicosylene) diammonium dibromide [II] | – | – | – | – | – | – | – | – | – | – | – | – | – | minimum inhibiting concentration (Aspergillus niger): 500 µg/mL; minimum inhibiting concentration (Candida albicans): 250 µg/mL; minimum inhibiting concentration (Epidermophyton flocossum): 500 µg/mL; minimum inhibiting concentration (Escherichia coli): 500 µg/mL; minimum inhibiting concentration (Proteus mirabilis): < 2000 µg/mL; minimum inhibiting concentration (Proteus vulgaris): < 2000 µg/mL; minimum inhibiting concentration (Pseudomonas aeruginosa): 2000 µg/mL; minimum inhibiting concentration (Staphylococcus aureos): 2000 µg/mL; minimum inhibiting concentration (Staphylococcus epidermis): 1000 µg/mL; minimum inhibiting concentration (Staphylococcus pyogenes): < 2000 µg/mL; minimum inhibiting concentration [2]: 31 µg/mL

— US4312813A, “Bisquaternary ammonium compound” (Johnson & Johnson Baby Products Company, priority 1980, dated 1982)
